Data on 16 compounds can be found in patent publication US20230372498A1, “PLK1 SELECTIVE DEGRADATION INDUCING COMPOUND” (UPPTHERA, priority 2020, published 2023).

For the test, the target named is T1, PLK1 (Homo sapiens, UniProt P53350).
T1 construct: endogenous in cells; host or cells: HeLa
Nature of the test: PLK1 protein degradation in HeLa cells, Western blotting (PLK1/GAPDH ratio). It counts as cell-based. The following applies: 6 hours compound incubation; for DC50: measured only if the grade of Dmax is A or B; for Dmax: thymidine block and release, 10 points three-fold from 3 μM, PLK1 to GAPDH ratio, read-out: Dmax. In a few lines: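 PLK1 level measured by Western blot as PLK1/GAPDH in HeLa lysates (15 μg protein per lane). Cells were blocked with 2 mM thymidine 24 h, released 4 h, and exposed 6 h to compound, 10 concentrations, 3-fold steps, top 3 μM.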

T1 sequence (P53350 whole entry): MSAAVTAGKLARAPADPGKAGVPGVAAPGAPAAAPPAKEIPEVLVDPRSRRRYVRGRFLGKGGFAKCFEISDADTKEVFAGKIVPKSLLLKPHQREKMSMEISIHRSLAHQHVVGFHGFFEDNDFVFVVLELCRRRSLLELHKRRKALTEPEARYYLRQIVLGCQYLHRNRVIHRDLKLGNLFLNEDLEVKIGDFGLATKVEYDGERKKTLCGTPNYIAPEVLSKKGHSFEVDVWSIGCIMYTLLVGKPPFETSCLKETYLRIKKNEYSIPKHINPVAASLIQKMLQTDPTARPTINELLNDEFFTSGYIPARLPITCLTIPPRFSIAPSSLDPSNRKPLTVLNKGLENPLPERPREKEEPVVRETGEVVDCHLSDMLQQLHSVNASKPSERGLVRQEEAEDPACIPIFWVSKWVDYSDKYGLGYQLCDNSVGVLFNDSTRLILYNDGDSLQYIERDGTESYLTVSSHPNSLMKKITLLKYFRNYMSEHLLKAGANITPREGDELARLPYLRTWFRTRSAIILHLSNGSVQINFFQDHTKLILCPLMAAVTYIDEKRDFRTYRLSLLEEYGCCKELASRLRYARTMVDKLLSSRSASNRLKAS

For `COc1cc(C(=O)NC2CCN(C(=O)N3CCN(c4ccc5c(c4)C(=O)N(C4CCC(=O)NC4=O)C5=O)CC3)CC2)c(F)cc1Nc1ncc2c(n1)N(C1CCCC1)CC(F)(F)C(=O)N2C` (centres unmarked) [Compound 72, 4-((9-cyclopentyl-7,7-difluoro-5-methyl-6-oxo-6,7,8,9-tetrahydro-5H-pyrimido[4,5-b][1,4]diazepin-2-yl)amino)-N-(1-(4-(2-(2,6-dioxopiperidin-3-yl)-1,3-dioxoisoindolin-5-yl)piperazine-1-carbonyl)piperidin-4-yl)-2-fluoro-5-methoxybenzamide], the DC50 was no more than 500 nM and the greatest degradation seen (Dmax) is 60 to 80%. For `COc1cc(C(=O)NC2CCN(C(=O)CN3CCN(c4ccc5c(c4)C(=O)N(C4CCC(=O)NC4=O)C5=O)CC3)CC2)c(F)cc1Nc1ncc2c(n1)N(C1CCCC1)CC(F)(F)C(=O)N2C` (centres unmarked) [Compound 73, 4-((9-cyclopentyl-7,7-difluoro-5-methyl-6-oxo-6,7,8,9-tetrahydro-5H-pyrimido[4,5-b][1,4]diazepin-2-yl)amino)-N-(1-(2-(4-(2-(2,6-dioxopiperidin-3-yl)-1,3-dioxoisoindolin-5-yl)piperazin-1-yl)acetyl)piperidin-4-yl)-2-fluoro-5-methoxybenzamide], the DC50 was no more than 50 nM and the Dmax was no less than 80%. On the same counts, the results for `COc1cc(C(=O)NC2CCN(C(=O)CCN3CCN(c4ccc5c(c4)C(=O)N(C4CCC(=O)NC4=O)C5=O)CC3)CC2)c(F)cc1Nc1ncc2c(n1)N(C1CCCC1)CC(F)(F)C(=O)N2C` (centres unmarked) [Compound 74, 4-((9-cyclopentyl-7,7-difluoro-5-methyl-6-oxo-6,7,8,9-tetrahydro-5H-pyrimido[4,5-b][1,4]diazepin-2-yl)amino)-N-(1-(3-(4-(2-(2,6-dioxopiperidin-3-yl)-1,3-dioxoisoindolin-5-yl)piperazin-1-yl)propanoyl)piperidin-4-yl)-2-fluoro-5-methoxybenzamide] are no more than 50 nM and no less than 80%. Consider `COc1cc(C(=O)NC2CCN(CCOCCOCCNc3cccc4c3CN(C3CCC(=O)NC3=O)C4=O)CC2)c(F)cc1Nc1ncc2c(n1)N(C1CCCC1)CC(F)(F)C(=O)N2C` (centres unmarked) [Compound 75, 4-((9-cyclopentyl-7,7-difluoro-5-methyl-6-oxo-6,7,8,9-tetrahydro-5H-pyrimido[4,5-b][1,4]diazepin-2-yl)amino)-N-(1-(2-(2-(2-((2-(2,6-dioxopiperidin-3-yl)-1-oxoisoindolin-4-yl)amino)ethoxy)ethoxy)ethyl)piperidin-4-yl)-2-fluoro-5-methoxybenzamide], for which the DC50 is no more than 50 nM and the Dmax is no less than 80%. On the same counts, the results for `COc1cc(C(=O)NC2CCN(CCOCCOCCOCCOCCNc3cccc4c3CN(C3CCC(=O)NC3=O)C4=O)CC2)c(F)cc1Nc1ncc2c(n1)N(C1CCCC1)CC(F)(F)C(=O)N2C` (centres unmarked) [Compound 76, 4-((9-cyclopentyl-7,7-difluoro-5-methyl-6-oxo-6,7,8,9-tetrahydro-5H-pyrimido[4,5-b][1,4]diazepin-2-yl)amino)-N-(1-(14-((2-(2,6-dioxopiperidin-3-yl)-1-oxoisoindolin-4-yl)amino)-3,6,9,12-tetraoxatetradecyl)piperidin-4-yl)-2-fluoro-5-methoxybenzamide] are no more than 500 nM and 60 to 80%.

In the case of `COc1cc(C(=O)NC2CCN(CCCCCCCCNc3cccc4c3CN(C3CCC(=O)NC3=O)C4=O)CC2)c(F)cc1Nc1ncc2c(n1)N(C1CCCC1)CC(F)(F)C(=O)N2C` (centres unmarked) [Compound 77, 4-((9-cyclopentyl-7,7-difluoro-5-methyl-6-oxo-6,7,8,9-tetrahydro-5H-pyrimido[4,5-b][1,4]diazepin-2-yl)amino)-N-(1-(8-((2-(2,6-dioxopiperidin-3-yl)-1-oxoisoindolin-4-yl)amino)octyl)piperidin-4-yl)-2-fluoro-5-methoxybenzamide], the DC50 is no more than 500 nM and the Dmax lay within 60 to 80%. On the same counts, the results for `COc1cc(C(=O)NC2CCN(CCOCCOCCOCCOCCNc3cccc4nnn(C5CCC(=O)NC5=O)c(=O)c34)CC2)c(F)cc1Nc1ncc2c(n1)N(C1CCCC1)CC(F)(F)C(=O)N2C` (centres unmarked) [Compound 78, 4-((9-cyclopentyl-7,7-difluoro-5-methyl-6-oxo-6,7,8,9-tetrahydro-5H-pyrimido[4,5-b][1,4]diazepin-2-yl)amino)-N-(1-(14-((3-(2,6-dioxopiperidin-3-yl)-4-oxo-3,4-dihydrobenzo[d][1,2,3]triazin-5-yl)amino)-3,6,9,12-tetraoxatetradecyl)piperidin-4-yl)-2-fluoro-5-methoxybenzamide] are no more than 50 nM and no less than 80%. For `COc1cc(C(=O)NC2CCN(CCCCCCCCNc3cccc4nnn(C5CCC(=O)NC5=O)c(=O)c34)CC2)c(F)cc1Nc1ncc2c(n1)N(C1CCCC1)CC(F)(F)C(=O)N2C` (centres unmarked) [Compound 79, 4-((9-cyclopentyl-7,7-difluoro-5-methyl-6-oxo-6,7,8,9-tetrahydro-5H-pyrimido[4,5-b][1,4]diazepin-2-yl)amino)-N-(1-(8-((3-(2,6-dioxopiperidin-3-yl)-4-oxo-3,4-dihydrobenzo[d][1,2,3]triazin-5-yl)amino)octyl)piperidin-4-yl)-2-fluoro-5-methoxybenzamide], in that order: no more than 50 nM and no less than 80%. Turning to `COc1cc(C(=O)NC2CCN(CCOCCOCC(=O)N[C@H](C(=O)N3C[C@H](O)C[C@H]3C(=O)NCc3ccc(-c4scnc4C)cc3)C(C)(C)C)CC2)c(F)cc1Nc1ncc2c(n1)N(C1CCCC1)CC(F)(F)C(=O)N2C` [Compound 80], the Dmax was less than 60%. On the same count and under the same terms, next, `COc1cc(C(=O)NC2CCN(CCOCCOCCOCC(=O)N[C@H](C(=O)N3C[C@H](O)C[C@H]3C(=O)NCc3ccc(-c4scnc4C)cc3)C(C)(C)C)CC2)c(F)cc1Nc1ncc2c(n1)N(C1CCCC1)CC(F)(F)C(=O)N2C` [Compound 81]: less than 60%; `COc1cc(C(=O)N[C@H]2CCN(C(=O)CCNC(=O)CNc3cccc4c3C(=O)N(C3CCC(=O)NC3=O)C4=O)C2)c(F)cc1Nc1ncc2c(n1)N(C1CCCC1)CC(F)(F)C(=O)N2C` (stereo partly drawn) [Compound 113, 4-((9-cyclopentyl-7,7-difluoro-5-methyl-6-oxo-6,7,8,9-tetrahydro-5H-pyrimido[4,5-b][1,4]diazepin-2-yl)amino)-N-((3S)-1-(3-(2-((2-(2,6-dioxopiperidin-3-yl)-1,3-dioxoisoindolin-4-yl)amino)acetamido)propanoyl)pyrrolidin-3-yl)-2-fluoro-5-methoxybenzamide]: less than 60%.

For `COc1cc(C(=O)NC2CCN(C(=O)CCOCCNc3cccc4c3C(=O)N(C3CCC(=O)NC3=O)C4=O)C2)c(F)cc1Nc1ncc2c(n1)N(C1CCCC1)CC(F)(F)C(=O)N2C` (centres unmarked) [Compound 114, 4-((9-cyclopentyl-7,7-difluoro-5-methyl-6-oxo-6,7,8,9-tetrahydro-5H-pyrimido[4,5-b][1,4]diazepin-2-yl)amino)-N-(1-(3-(2-((2-(2,6-dioxopiperidin-3-yl)-1,3-dioxoisoindolin-4-yl)amino)ethoxy)propanoyl)pyrrolidin-3-yl)-2-fluoro-5-methoxybenzamide], the DC50 was no more than 50 nM and the Dmax was no less than 80%. Take `COc1cc(C(=O)N[C@H]2CCN(C(=O)COCCOCCNc3cccc4c3C(=O)N(C3CCC(=O)NC3=O)C4=O)C2)c(F)cc1Nc1ncc2c(n1)N(C1CCCC1)CC(F)(F)C(=O)N2C` (stereo partly drawn) [Compound 115, 4-((9-cyclopentyl-7,7-difluoro-5-methyl-6-oxo-6,7,8,9-tetrahydro-5H-pyrimido[4,5-b][1,4]diazepin-2-yl)amino)-N-((3S)-1-(2-(2-(2-((2-(2,6-dioxopiperidin-3-yl)-1,3-dioxoisoindolin-4-yl)amino)ethoxy)ethoxy)acetyl)pyrrolidin-3-yl)-2-fluoro-5-methoxybenzamide]: the DC50 was no more than 50 nM and the Dmax was no less than 80%. For `COc1cc(C(=O)N[C@H]2CCN(C(=O)COCCOCCOCCOCCNc3cccc4c3C(=O)N(C3CCC(=O)NC3=O)C4=O)C2)c(F)cc1Nc1ncc2c(n1)N(C1CCCC1)CC(F)(F)C(=O)N2C` (stereo partly drawn) [Compound 116, 4-((9-cyclopentyl-7,7-difluoro-5-methyl-6-oxo-6,7,8,9-tetrahydro-5H-pyrimido[4,5-b][1,4]diazepin-2-yl)amino)-N-((3S)-1-(14-((2-(2,6-dioxopiperidin-3-yl)-1,3-dioxoisoindolin-4-yl)amino)-3,6,9,12-tetraoxatetradecanoyl)pyrrolidin-3-yl)-2-fluoro-5-methoxybenzamide], in that order: no more than 50 nM and no less than 80%.

With `COc1cc(C(=O)NC2CCN(C(=O)CCCCNc3cccc4c3C(=O)N(C3CCC(=O)NC3=O)C4=O)C2)c(F)cc1Nc1ncc2c(n1)N(C1CCCC1)CC(F)(F)C(=O)N2C` (centres unmarked) [Compound 117, 4-((9-cyclopentyl-7,7-difluoro-5-methyl-6-oxo-6,7,8,9-tetrahydro-5H-pyrimido[4,5-b][1,4]diazepin-2-yl)amino)-N-(1-(5-((2-(2,6-dioxopiperidin-3-yl)-1,3-dioxoisoindolin-4-yl)amino)pentanoyl)pyrrolidin-3-yl)-2-fluoro-5-methoxybenzamide], the DC50 is no more than 50 nM and the Dmax is no less than 80%. On the same counts, the results for `COc1cc(C(=O)NC2CCN(C(=O)CCCCCNc3cccc4c3C(=O)N(C3CCC(=O)NC3=O)C4=O)C2)c(F)cc1Nc1ncc2c(n1)N(C1CCCC1)CC(F)(F)C(=O)N2C` (centres unmarked) [Compound 118, 4-((9-cyclopentyl-7,7-difluoro-5-methyl-6-oxo-6,7,8,9-tetrahydro-5H-pyrimido[4,5-b][1,4]diazepin-2-yl)amino)-N-(1-(6-((2-(2,6-dioxopiperidin-3-yl)-1,3-dioxoisoindolin-4-yl)amino)hexanoyl)pyrrolidin-3-yl)-2-fluoro-5-methoxybenzamide] are no more than 50 nM and no less than 80%.
